Measured values taken from PubChem BioAssay AID1963864 (Molecular Pharmacology Branch, DTP, NCI, 2024).

Test system: KRAS PDC multicell spheroid viability
Assay: Anticancer human tumor 521955-158-R6-J3-PDC patient-derived pancreatic carcinoma cell line growth inhibition [KRAS2]
Conditions: for IC50: curve of first compound; for viability, T/C: stronger effect = lower value
Outline: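 Combination screen of spheroid viability in tumor-cell co-cultures with endothelial (HUVEC) and mesenchymal stem cell stroma. Each agent was tested in half-log dilutions, topping at clinical Cmax or at 10 microM without a known Cmax.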

[1] = second compound 0.1 µM, first compound 0.0316 µM
[2] = second compound 0.1 µM, first compound 0.1 µM
[3] = second compound 0.1 µM, first compound 0.316 µM
[4] = second compound 0.1 µM, first compound 1 µM
[5] = second compound 0.316 µM, first compound 0.0316 µM
[6] = second compound 0.316 µM, first compound 0.1 µM
[7] = second compound 0.316 µM, first compound 0.316 µM
[8] = second compound 0.316 µM, first compound 1 µM
[9] = second compound 1 µM, first compound 0.0316 µM
[10] = second compound 1 µM, first compound 0.1 µM
[11] = second compound 1 µM, first compound 0.316 µM
[12] = second compound 1 µM, first compound 1 µM
[13] = second compound 3.16 µM, first compound 0.0316 µM
[14] = second compound 3.16 µM, first compound 0.1 µM
[15] = second compound 3.16 µM, first compound 0.316 µM
[16] = second compound 3.16 µM, first compound 1 µM
[17] = second compound 10 µM, first compound 0.0316 µM
[18] = second compound 10 µM, first compound 0.1 µM
[19] = second compound 10 µM, first compound 0.316 µM
[20] = second compound 10 µM, first compound 1 µM
[21] = second compound 0.1 µM, first compound 0.00316 µM
[22] = second compound 0.1 µM, first compound 0.01 µM
[23] = second compound 0.316 µM, first compound 0.00316 µM
[24] = second compound 0.316 µM, first compound 0.01 µM
[25] = second compound 1 µM, first compound 0.00316 µM
[26] = second compound 1 µM, first compound 0.01 µM
[27] = second compound 3.16 µM, first compound 0.00316 µM
[28] = second compound 3.16 µM, first compound 0.01 µM
[29] = second compound 10 µM, first compound 0.00316 µM
[30] = second compound 10 µM, first compound 0.01 µM
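Also: drug exposure lasted seven days.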
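For viability, T/C in this document: 100% = DMSO vehicle wells and lower means fewer viable cells.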

SMILES	IC50 (second compound 0.1 µM)	IC50 (second compound 0.316 µM)	IC50 (second compound 1 µM)	IC50 (second compound 3.16 µM)	IC50 (second compound 10 µM)	viability, T/C [1]	viability, T/C [2]	viability, T/C [3]	viability, T/C [4]	viability, T/C [5]	viability, T/C [6]	viability, T/C [7]	viability, T/C [8]	viability, T/C [9]	viability, T/C [10]	viability, T/C [11]	viability, T/C [13]	viability, T/C [14]	viability, T/C [17]	viability, T/C [18]	also measured
CC(C)NCC(C(=O)N1CCN(c2ncnc3c2C(C)CC3O)CC1)c1ccc(Cl)cc1 (stereo not given) + COc1cc2nc(C)nc(NC(C)c3cc(N)cc(C(F)(F)F)c3)c2cc1OC1CCOC1	> 10 µM	> 10 µM	> 10 µM	> 10 µM	< 0.0316 µM	96.1%	90.2%	76.1%	84.9%	83.8%	79%	75.7%	70.3%	82.3%	83.8%	73.5%	63.3%	62.1%	44.1%	40.2%	viability, T/C (second compound 0.1 µM, first compound 3.16 µM): 72.8%; viability, T/C (second compound 0.1 µM, first compound 10 µM): 71.8%; viability, T/C (second compound 0.316 µM, first compound 3.16 µM): 77.7%; viability, T/C (second compound 0.316 µM, first compound 10 µM): 64.6%; viability, T/C [12]: 69.2%; viability, T/C (second compound 1 µM, first compound 3.16 µM): 70.5%; viability, T/C (second compound 1 µM, first compound 10 µM): 59.6%; viability, T/C [15]: 67.2%; viability, T/C [16]: 63.7%; viability, T/C (second compound 3.16 µM, first compound 3.16 µM): 72.1%; viability, T/C (second compound 3.16 µM, first compound 10 µM): 67.7%; viability, T/C [19]: 46.1%; viability, T/C [20]: 28.4%; viability, T/C (second compound 10 µM, first compound 3.16 µM): 27.1%; viability, T/C (second compound 10 µM, first compound 10 µM): 16.7%
CCN1CCN(Cc2ccc(Nc3ncc(F)c(-c4cc(F)c5nc(C)n(C(C)C)c5c4)n3)nc2)CC1 + COc1cc2nc(C)nc(NC(C)c3cc(N)cc(C(F)(F)F)c3)c2cc1OC1CCOC1	> 1 µM	> 1 µM	> 1 µM	> 1 µM	< 0.00316 µM	69.7%	83.9%	73.7%	101%	88.3%	69.8%	71.8%	88.8%	86.1%	75.6%	71.5%	79.1%	66.8%	40.5%	55.1%	viability, T/C [21]: 105%; viability, T/C [22]: 88%; viability, T/C [23]: 93.8%; viability, T/C [24]: 84.5%; viability, T/C [25]: 90.7%; viability, T/C [26]: 84.1%; viability, T/C [12]: 86.8%; viability, T/C [27]: 87.1%; viability, T/C [28]: 82.1%; viability, T/C [15]: 69.8%; viability, T/C [16]: 77.4%; viability, T/C [29]: 33.4%; viability, T/C [30]: 33.6%; viability, T/C [19]: 17.6%; viability, T/C [20]: 10%
Cn1ncnc1[C@H]1c2n[nH]c(=O)c3cc(F)cc(c23)N[C@@H]1c1ccc(F)cc1 + COc1cc2nc(C)nc(NC(C)c3cc(N)cc(C(F)(F)F)c3)c2cc1OC1CCOC1	> 0.1 µM	> 0.1 µM	> 0.1 µM	> 0.1 µM	< 0.000316 µM	94%	93.1%			87.3%	84.2%			82.3%	82.6%		71.8%	74.9%	8.29%	16%	viability, T/C (second compound 0.1 µM, first compound 0.000316 µM): 96.2%; viability, T/C (second compound 0.1 µM, first compound 0.001 µM): 94.9%; viability, T/C [21]: 86.8%; viability, T/C [22]: 87.8%; viability, T/C (second compound 0.316 µM, first compound 0.000316 µM): 90.5%; viability, T/C (second compound 0.316 µM, first compound 0.001 µM): 92.6%; viability, T/C [23]: 86.7%; viability, T/C [24]: 87.8%; viability, T/C (second compound 1 µM, first compound 0.000316 µM): 83.2%; viability, T/C (second compound 1 µM, first compound 0.001 µM): 78.3%; viability, T/C [25]: 80.5%; viability, T/C [26]: 86.6%; viability, T/C (second compound 3.16 µM, first compound 0.000316 µM): 68.2%; viability, T/C (second compound 3.16 µM, first compound 0.001 µM): 73.9%; viability, T/C [27]: 71.5%; viability, T/C [28]: 72.3%; viability, T/C (second compound 10 µM, first compound 0.000316 µM): 23.4%; viability, T/C (second compound 10 µM, first compound 0.001 µM): 27.8%; viability, T/C [29]: 9.47%; viability, T/C [30]: 25.1%
